Assay results: publication PMC7074166, “Screening for Small Molecule Modulators of Trypanosoma brucei Hsp70 Chaperone Activity Based upon Alcyonarian Coral-Derived Natural Products” (Marine Drugs, 2020)
Read-outs that look alike come from different tables or passages of the source.

Test system: bloodstream form T. b. brucei parasites
Assay: Resazurin-based anti-trypanosomal assay on bloodstream form T. b. brucei parasites
Format: cell-based, Trypanosoma brucei brucei
Description: Bloodstream form T. b. brucei Lister 927 variant 221 strain parasites were cultured in filter sterilized complete Iscoves Modified Dulbeccos Media (IMDM) based HM1-9 medium (IMDM base powder, […] sodium bicarbonate, 1 mM hypoxanthine, 1 mM sodium pyruvate, 0.16 mM thymidine, 0.05 mM bathocuprone sulphate acid, 10% (v/v) heat inactivated foetal bovine serum, 1.5 mM L-cysteine, 0.2 mM β-mercaptoethanol, pH 7.5) in a humidified chamber at 37 °C with an atmosphere of 5% CO2. Parasite growth was monitored using a Neubauer haemocytometer to count the cell number, after which cells were diluted, according to their density, in the described pre-warmed media.
All compounds of interest were resuspended to stocks of 30 mM in DMSO and stored at −80 °C prior to use in in vitro experiments. For assessment of anti-trypanosomal activity, compounds were added to in vitro cultures of bloodstream form T. b. brucei parasites (1 × 10^5 cells/mL) in 96-well plates at a fixed concentration of 20 μM. After an incubation period of 48 h, the number of parasites surviving drug exposure were determined using a resazurin-based cytotoxicity assay. Resazurin is an oxidation–reduction sensitive dye that is reduced by living cells to resorufin. Resorufin is a fluorophore (Excitation560/Emission590) and thus was quantified in a multi-well fluorescence plate reader. Results are expressed as % parasite viability—the resorufin fluorescence in small molecule-treated wells relative to untreated controls. Assessment of each small molecule was conducted in duplicate, with error bars representing standard deviation (SD). […] The compounds were added to in vitro cultures of bloodstream form T. b. brucei parasites (1 × 10^5 cells/mL) in 96-well plates in a 3-fold dilution series with 100 μM as the highest concentration. After an incubation period of 48 h, the number of parasites surviving drug exposure were determined as previously mentioned. The % parasite viability was determined as previously mentioned. The IC50 (the concentration of compound required to decrease cell viability of T. b. brucei parasites by 50% compared to those grown in the absence of the compound) values for each of the compounds were determined from a dose–response curve by non-linear regression generated using GraphPad Prism® (v. 7.0; San Diego, CA, USA) software. For comparative purposes, pentamidine at a fixed concentration of 1 μM was employed as a drug standard.

[1] = Trypanosoma brucei, Table 1, T. b. brucei parasites cultured in vitro, 48 h, dose-response, read-out: IC50/μM
[2] = Trypanosoma brucei, Table S1, 48 select compounds, T. b. brucei, 48 h, read-out: IC50/

## CC(C)=CCC/C(C)=C/CCC(C)=CCn1ccnc1 [Compound 71, 1-((6E)-3,7,11-Trimethyldodeca-2,6,10-trien-1-yl)-1H-imidazole]
[1]
  IC50: 26.8 µM
[2]
  IC50: 26.8 µM

## CC(C)=CCC/C(C)=C/CCC(C)=CCn1cnc2c(N)ncnc21 [Compound 7, 9-((6E)-3,7,11-trimethyldodeca-2,6,10-trien-1-yl)-9H-purin-6-amine]
[1]
  IC50: 47.7 µM
[2]
  IC50: 47.7 µM

## 6-chloro-7-((2E,6E)-3,7,11-trimethyldodeca-2,6,10-trien-1-yl)-9H-purine [Compound 18]
Table 1, T. b. brucei parasites cultured in vitro, 48 h, dose-response, read-out: IC50/μM
  IC50: 9.3 µM
Table S1, 48 select compounds, T. b. brucei, 48 h, read-out: IC50/
  IC50: 9.28 µM

## CC(C)=CCC/C(C)=C/CC/C(C)=C\CNC=O [Compound 74, N-((2Z,6E)-3,7,11-Trimethyldodeca-2,6,10-trien-1-yl)formamide]
[1]
  IC50: 27.3 µM
[2]
  IC50: 27.3 µM

## N=C(N)c1ccc(OCCCCCOc2ccc(C(=N)N)cc2)cc1 [pentamidine, reference compound]
Trypanosoma brucei, T. b. brucei parasites cultured in vitro, positive control, read-out: IC50 of drug standard
  IC50: 0.0053 µM

## CC(C)=CCC/C(C)=C/CC/C(C)=C/CC/C(C)=C\Cn1cnc2c1c(=O)n(C)c(=O)n2C [Compound 36, 1,3-Dimethyl-7-((2Z,6E,10E)-3,7,11,15-tetramethylhexadeca-2,6,10,14-tetraen-1-yl)-3,7-dihydro-1H-purine-2,6-dione]
[1]
  IC50: 5.2 µM
[2]
  IC50: 5.17 µM

## CC(=O)NC/C=C(\C)CC/C=C(\C)CC/C=C(\C)CCC=C(C)C [Compound 85, N-((2E,6E,10E)-3,7,11,15-tetramethylhexadeca-2,6,10,14-tetraen-1-yl)acetamide]
[1]
  IC50: 3.1 µM
[2]
  IC50: 3.14 µM

## CC(C)=CCC/C(C)=C/CC/C(C)=C/CC/C(C)=C/Cn1cnc2c1c(=O)[nH]c(=O)n2C [Compound 33, 3-methyl-7-((2E,6E,10E)-3,7,11,15-tetramethylhexadeca-2,6,10,14-tetraen-1-yl)-3,7-dihydro-1H-purine-2,6-dione]
[1]
  IC50: 10.2 µM
[2]
  IC50: 10.2 µM

## CC(C)=CCC/C(C)=C/Cn1cnc2ncnc(Cl)c21 [Compound 16, (E)-6-chloro-7-(3,7-dimethylocta-2,6-dien-1-yl)-7H-purine]
[1]
  IC50: 11 µM
[2]
  IC50: 11 µM

## CC(C)=CCC/C(C)=C/CC/C(C)=C/CC/C(C)=C/CN(C)C=O [Compound 80, N-Methyl-N-((2E,6E,10E)-3,7,11,15-tetramethylhexadeca-2,6,10,14-tetraen-1-yl)formamide]
[1]
  IC50: 41.2 µM
[2]
  IC50: 41.2 µM

## CC(C)=CCC/C(C)=C/Cn1cnc2c1c(=O)[nH]c(=O)n2C [Compound 29, (E)-7-(3,7-Dimethylocta-2,6-dien-1-yl)-3-methyl-3,7-dihydro-1H-purine-2,6-dione]
[1]
  IC50: 18.9 µM
[2]
  IC50: 18.9 µM

## CC(C)=CCC/C(C)=C/CCC(C)=CCN1C(=O)c2ccccc2C1=O [Compound 68, 2-((6E)-3,7,11-Trimethyldodeca-2,6,10-trien-1-yl)isoindoline-1,3-dione]
[1]
  IC50: 32.2 µM
[2]
  IC50: 32.2 µM

## CC(C)=CCC/C(C)=C/CCC(C)=CCn1ccc(=O)[nH]c1=O [Compound 55, 1-((6E)-3,7,11-Trimethyldodeca-2,6,10-trien-1-yl)pyrimidine-2,4(1H,3H)-dione]
[1]
  IC50: 16.5 µM
[2]
  IC50: 16.5 µM

## CC(C)=CCC/C(C)=C/CC/C(C)=C/CC/C(C)=C\Cn1ccc(=O)[nH]c1=O [Compound 56, 1-((2Z,6E,10E)-3,7,11,15-Tetramethylhexadeca-2,6,10,14-tetraen-1-yl)pyrimidine-2,4(1H,3H)-dione]
[1]
  IC50: 6.2 µM

## CC(C)=CCC/C(C)=C/CCC(C)=CCNC=O [Compound 75, N-((6E)-3,7,11-trimethyldodeca-2,6,10-trien-1-yl)formamide]
T. b. brucei, screen at 20 μM
  anti-trypanosomal activity (SAR statement): inactive

## CC(C)=CCC/C(C)=C/CC/C(C)=C/CC/C(C)=C/Cn1cnc2c(cnn2C/C=C(\C)CC/C=C(\C)CC/C=C(\C)CCC=C(C)C)c1=O [Compound 50, 1,5-Bis((2E,6E,10E)-3,7,11,15-tetramethylhexadeca-2,6,10,14-tetraen-1-yl)-1,5-dihydro-4H-pyrazolo[3,4-d]pyrimidin-4-one]
[1]
  IC50: 2.1 µM
[2]
  IC50: 2.07 µM

## CC(C)=CCC/C(C)=C/CC/C(C)=C/CC/C(C)=C/Cn1cnc2c(Cl)ncnc21 [Compound 19, 6-Chloro-9-((2E,6E,10E)-3,7,11,15-tetramethylhexadeca-2,6,10,14-tetraen-1-yl)-9H-purine]
[1]
  IC50: 6.8 µM
[2]
  IC50: 6.79 µM

## CC(C)=CCC/C(C)=C/CCC(C)=CCn1cnc(N)c2ncnc1-2 [Compound 6, 3-((6E)-3,7,11-Trimethyldodeca-2,6,10-trien-1-yl)-3H-purin-6-amine]
[1]
  IC50: 12.7 µM
[2]
  IC50: 12.7 µM

## CC(C)=CCC/C(C)=C/CC/C(C)=C/CC/C(C)=C/Cn1cnc2c(N(C)C)ncnc21 [Compound 14, N,N-dimethyl-9-((2E,6E,10E)-3,7,11,15-tetramethylhexadeca-2,6,10,14-tetraen-1-yl)-9H-purin-6-amine]
[1]
  IC50: 9.2 µM
[2]
  IC50: 9.22 µM

## CC(C)=CCC/C(C)=C/CC/C(C)=C/CC/C(C)=C\Cn1cnc2c1c(=O)[nH]c(=O)n2C [Compound 32, 3-Methyl-7-((2Z,6E,10E)-3,7,11,15-tetramethylhexadeca-2,6,10,14-tetraen-1-yl)-3,7-dihydro-1H-purine-2,6-dione]
[1]
  IC50: 5.9 µM

## CC(C)=CCC/C(C)=C/CCC(C)=CCn1cnc2c(Cl)ncnc21 [Compound 17, 6-Chloro-9-((6E)-3,7,11-trimethyldodeca-2,6,10-trien-1-yl)-9H-purine]
[1]
  IC50: 12.9 µM
[2]
  IC50: 12.9 µM

## CC(C)=CCC/C(C)=C/CCC(C)=CCn1cnc(N(C)C)c2ncnc1-2 [Compound 12, N,N-dimethyl-3-((6E)-3,7,11-trimethyldodeca-2,6,10-trien-1-yl)-3H-purin-6-amine]
[1]
  IC50: 14 µM

## CC(C)=CCC/C(C)=C/CC/C(C)=C/Cn1cnc2nncc-2c1O [Compound 49, 5-((2E,6E)-3,7,11-trimethyldodeca-2,6,10-trien-1-yl)-5H-pyrazolo[3,4-d]pyrimidin-4-ol]
[1]
  IC50: 16.7 µM
[2]
  IC50: 16.7 µM

## CC(C)=CCC/C(C)=C/CCC(C)=CCn1c(=O)[nH]c2c(=O)n(C)c(=O)n(C)c21 [Compound 44, 1,3-dimethyl-9-((6E)-3,7,11-trimethyldodeca-2,6,10-trien-1-yl)-7,9-dihydro-1H-purine-2,6,8(3H)-trione]
[1]
  IC50: 16.6 µM
[2]
  IC50: 16.6 µM

## CC(C)=CCC/C(C)=C/CC/C(C)=C/CC/C(C)=C\CNC=O [Compound 76, N-((2Z,6E,10E)-3,7,11,15-Tetramethylhexadeca-2,6,10,14-tetraen-1-yl)formamide]
[1]
  IC50: 11 µM
[2]
  IC50: 11 µM

## CC(C)=CCC/C(C)=C/CC/C(C)=C/CC/C(C)=C/Cn1ccnc1 [Compound 72, 1-((2E,6E,10E)-3,7,11,15-Tetramethylhexadeca-2,6,10,14-tetraen-1-yl)-1H-imidazole]
[1]
  IC50: 3.4 µM
[2]
  IC50: 3.42 µM

## CC(=O)N(C)C/C=C(\C)CC/C=C(\C)CC/C=C(\C)CCC=C(C)C [Compound 88, N-Methyl-N-((2E,6E,10E)-3,7,11,15-tetramethylhexadeca-2,6,10,14-tetraen-1-yl)acetamide]
[1]
  IC50: 38.4 µM

## CC(=O)NC/C=C(\C)CC/C=C(\C)CCC=C(C)C [Compound 83, N-((2E,6E)-3,7,11-trimethyldodeca-2,6,10-trien-1-yl)acetamide]
[1]
  IC50: 21.5 µM
[2]
  IC50: 21.5 µM

## CC(C)=CCC/C(C)=C/CC/C(C)=C/CC/C(C)=C/Cn1cnc2c(N)ncnc21 [Compound 8, 9-((2E,6E,10E)-3,7,11,15-Tetramethylhexadeca-2,6,10,14-tetraen-1-yl)-9H-purin-6-amine]
[1]
  IC50: 13.4 µM
[2]
  IC50: 13.4 µM

## CC(C)=CCC/C(C)=C/Cn1cnc2c(N(C)C)ncnc21 [Compound 9, (E)-9-(3,7-Dimethylocta-2,6-dien-1-yl)-N,N-dimethyl-9H-purin-6-amine]
[1]
  IC50: 28.4 µM
[2]
  IC50: 28.4 µM

## CC(C)=CCC/C(C)=C/CCC(C)=CCn1cnc2c(N(C)C)ncnc21 [Compound 11, N,N-Dimethyl-9-((6E)-3,7,11-trimethyldodeca-2,6,10-trien-1-yl)-9H-purin-6-amine]
[1]
  IC50: 9.5 µM
[2]
  IC50: 9.48 µM

## CC(C)=CCC/C(C)=C/CC/C(C)=C/CC/C(C)=C/CN1C(=O)c2ccccc2C1=O [Compound 69, 2-((2E,6E,10E)-3,7,11,15-Tetramethylhexadeca-2,6,10,14-tetraen-1-yl)isoindoline-1,3-dione]
[1]
  IC50: 9.2 µM
[2]
  IC50: 9.16 µM
